Where two headings read alike, the source gives them in different places.
How the values were obtained:
[1] = tested on: H2228 (EML4-ALK); conditions: cited from earlier work
[2] = tested on: H1975; experiment: Blocking of sanguinarine-induced apoptosis and EGFR degradation in H1975; type: cell-based; conditions: H1975, 24 hrs, flow cytometry
Source text: The fold change of treated group is normalized to untreated group. Results are expressed as mean±S.E.M. The data represent mean±S.E.M. of three independent experiments. (n=3, ***p<0.001). In FIG. 6B, the up-regulation of NOX 3 by sanguinarine is also confirmed on protein level, which is corresponding to the degradation of EGFR. […] One of representative data is shown (n=3). FIG. 6D uses real-time PCR to detect the RNA expression level of Msr A in five NSCLC cell lines. The expression level of Msr in other 5 cell lines is normalized to that of BEAS-2B cell line. The data represent mean±S.E.M. of three independent experiments (n=3, *p<0.05, **p<0.01, ***p<0.001). The result in this example supports that NADPH oxidase and methionine sulfoxide reductase are key enzymes involved in the ROS generation induced by […] in gefitinib-resistant NSCLC. Schematic diagram of how methionine (Met) is oxidized by NADPH oxidase (ROS) and reduced by methionine sulfoxide reductase is shown in FIG. 5. FIG. 7 is a cell model further illustrating how sanguinarine and H2O2 act on the signaling pathway of inducing EGFR degradation in H1975 cells, and thereby leading to apoptosis of the cells. […]

[3] = tested on: EGFR construct having double mutation (L858R and T790M) in HEK293 cells; experiment: Western blot of total EGFR in HEK293 cells transfected with EGFR L858R+T790M double mutation; type: cell-based
Description: HEK293 cells are used in this example as cell model to be transfected with different constructs of EGFR (wild-type, L858R mutation, Exon 19 deletion, L858R+T790M double mutation). In FIG. 3A, 3 μM saguinarine is added into the HEK293 transfected with different EGFR constructs.

[4] = tested on: total EGFR, EGFR (pY845) and EGFR (pY1068) in H1975 cells; experiment: Western blot of EGFR markers in H1975 cells; type: cell-based; conditions: 25 μM H2O2
Source text: (§1) FIG. 2A is a control. Among the four cell lines, only H1975 cells have additional T790M mutation on EGFR. […] Compared with sanguinarine, effect of H2O2 on suppression of these markers in H1975 cells is relatively less significant. […] The EGFR degradation is also specific in NSCLC cells having T790M mutation by using sanguinarine or H2O2.

[5] = tested on: short EGFR peptide containing the T790M mutation (LIMQL); experiment: ESI-MS of methionine oxidation in short EGFR peptide; type: biochemical; conditions: 10-100 μM H2O2 for 10 min
Source text: The methionine amino acid of a short EGFR peptide containing the T790M mutation could be easily oxidized in a dose-dependent manner under oxidative stress condition. […] A peptide equivalent to the amino acid sequence position from 788 to 792 of EGFR in wild-type (LITQL) and T790M mutant (LIMQL) of EGFR (Sequence acquired from Pubmed database; SEQ. ID. NO. 2/GenBank Accession number of amino acid is NP_005219) is synthesized and both of them are subject to mass spectrometry. In FIG. 4A, ESI-MS detects the standard peptide of LIMQL and oxidized form of the peptide (LIM(O)QL). They are used as standard of the MS pattern of the un-oxidized form of methionine (“M”) and the oxidized form methionine (“M(O)”) for the EGFR short peptide. FIG. 4B-G are ESI-MS results of oxidized methionine in peptide treated with different concentrations of H2O2: FIG. 4B is for H2O2 untreated sample; FIG. 4C is for sample treated with 10 μM H2O2 for 10 min; FIG. 4D is for sample treated with 20 μM H2O2 for 10 min; FIG. 4E is for sample treated with 40 μM H2O2 for 10 min; FIG. 4F is for sample treated with 80 μM H2O2 for 10 min; FIG. 4G is for sample treated with 100 μM H2O2 for 10 min. One of representative data is shown (n=3).

[6] = tested on: total EGFR, EGFR (pY845) and EGFR (pY1068) in A594 cells; experiment: Western blot of EGFR markers in A594 cells; type: cell-based; conditions: H2O2
Source text: as §1

[7] = tested on: HCC827(EGFR^L858R); experiment: IC50 of sanguinarine against NSCLC cell line HCC827; type: cell-based; conditions: Homo sapiens
Source text: (§2) Among the five cell lines, H1975 is the most sensitive cells to sanguinarine treatment, while A549 is the most resistant one.

[8] = tested on: H2228 (EML4-ALK); experiment: IC50 of sanguinarine against NSCLC cell line H2228; type: cell-based; conditions: Homo sapiens, NCI-H2228
Source text: as §2

[9] = tested on: A549 (EGFR^wild-type); experiment: IC50 of sanguinarine against NSCLC cell line A549; type: cell-based; conditions: Homo sapiens
Source text: as §2

[10] = tested on: H1975(EGFR^L858R+T790M); experiment: IC50 of sanguinarine against NSCLC cell line H1975; type: cell-based; conditions: for IC50: Homo sapiens, NCI-H1975
Source text: as §2

[11] = tested on: H1650 (EGFR^Exon19 deletion); experiment: IC50 of sanguinarine against NSCLC cell line H1650; type: cell-based; conditions: Homo sapiens, NCI-H1650
Source text: as §2

COc1cc2ncnc(Nc3ccc(F)c(Cl)c3)c2cc1OCCCN1CCOCC1 [Gefitinib]
Gefitinib resistance [1]: resistance

c1ccc2c(c1)[I+]c1ccccc1-2 [DPI]
blocking of apoptosis and degradation of EGFR induced by sanguinarine [2]: blocks the apoptosis and the degradation of EGFR

OO [H2O2]
total EGFR level ([3]; 200 μM H2O2): significant reduction | total EGFR level ([3]; 300 μM H2O2): more significant reduction | expression level of total EGFR and pY845 EGFR [4]: slightly reduced | oxidation of methionine in short EGFR peptide [5]: oxidized by ROS in a time- and dose-dependent manner | level of all markers (total EGFR, pY845 EGFR, pY1068 EGFR) [6]: no significant change

C[n+]1cc2c3c(ccc2c2ccc4cc5c(cc4c21)OCO5)OCO3 [sanguinarine]
IC50 ([7]; HCC827, 24 hrs, read-out: IC50 value Treatment (24 hrs)): 1900 ± 248 nM | IC50 ([7]; HCC827, 48 hrs, read-out: IC50 value Treatment (48 hrs)): 1060 ± 270 nM | IC50 ([8]; H2228, 24 hrs, read-out: IC50 value Treatment (24 hrs)): 3730 ± 1230 nM | IC50 ([8]; H2228, 48 hrs, read-out: IC50 value Treatment (48 hrs)): 3080 ± 1560 nM | IC50 ([9]; A549, 24 hrs, read-out: IC50 value Treatment (24 hrs)): 5710 ± 1730 nM | IC50 ([9]; A549, 48 hrs, read-out: IC50 value Treatment (48 hrs)): 3830 ± 1110 nM | IC50 value in H1975 fold lower than that of A549 ([10]; H1975 vs A549): 8 fold | IC50 value in H1975 fold lower than that of H1650 ([10]; H1975 vs H1650): 5.1 fold | IC50 value in H1975 fold lower than that of H2228 ([10]; H1975 vs H2228): 5.4 fold | IC50 value in H1975 fold lower than that of HCC827 ([10]; H1975 vs HCC827): 3 fold | IC50 ([10]; H1975, 24 hrs, read-out: IC50 value Treatment (24 hrs)): 680 ± 240 nM | IC50 ([10]; H1975, 48 hrs, read-out: IC50 value Treatment (48 hrs)): 580 ± 140 nM | IC50 ([11]; H1650, 24 hrs, read-out: IC50 value Treatment (24 hrs)): 3470 ± 1310 nM | IC50 ([11]; H1650, 48 hrs, read-out: IC50 value Treatment (48 hrs)): 2640 ± 1310 nM
